Experimental data from PubChem BioAssay (NCI).
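Compound exposure: 48 hours, 5 concentrations, 96-well plates. The concentration for 50% growth inhibition is given as GI50. TGI: concentration producing complete growth inhibition.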

Columns and labels:
Assay in all cases: NCI anticancer screen, dose series, 48 h; in the data active = GI50 below about 0.43 µM; inactive = the rest
CCRF-CEM leukemia = system: CCRF-CEM leukemia
SNB-75 CNS = system: SNB-75 CNS
DU-145 prostate = system: DU-145 prostate
NCI-H226 lung = system: NCI-H226 lung
HOP-62 NSCLC = system: HOP-62 NSCLC
SK-OV-3 ovarian = system: SK-OV-3 ovarian
BT-549 breast = system: BT-549 breast
TK-10 renal = system: TK-10 renal
UACC-257 melanoma = system: UACC-257 melanoma
MOLT-4 leukemia = system: MOLT-4 leukemia
KM12 colon = system: KM12 colon
K-562 leukemia = system: K-562 leukemia
HOP-92 NSCLC = system: HOP-92 NSCLC
NCI/ADR-RES ovarian = system: NCI/ADR-RES ovarian
HT29 colon = system: HT29 colon
OVCAR-5 ovarian = system: OVCAR-5 ovarian
HCC-2998 colon = system: HCC-2998 colon
NCI-H522 lung = system: NCI-H522 lung
COLO 205 colon = system: COLO 205 colon
CAKI-1 renal = system: CAKI-1 renal
HS 578T breast = system: HS 578T breast
IGROV1 ovarian = system: IGROV1 ovarian
SN12C renal = system: SN12C renal
PC-3 prostate = system: PC-3 prostate
HCT-15 colon = system: HCT-15 colon
SNB-19 CNS = system: SNB-19 CNS
SF-268 CNS = system: SF-268 CNS
MCF7 breast = system: MCF7 breast
SR leukemia = system: SR leukemia

COc1cc(O)c2c3c(ccnc13)-c1ccccc1N2
12.3 µM: TGI (HCC-2998 colon)
47.4 µM: TGI (CAKI-1 renal)
91.9 µM: TGI (NCI-H226 lung)
64.5 µM: TGI (KM12 colon)
60 µM: TGI (NCI-H522 lung)
35.7 µM: TGI (DU-145 prostate)
> 100 µM: TGI (CCRF-CEM leukemia) | TGI (SNB-75 CNS) | TGI (HOP-62 NSCLC) | TGI (SK-OV-3 ovarian) | TGI (UACC-257 melanoma) | TGI (MOLT-4 leukemia) | TGI (K-562 leukemia) | TGI (HOP-92 NSCLC) | TGI (HT29 colon) | TGI (OVCAR-5 ovarian) | TGI (COLO 205 colon) | TGI (IGROV1 ovarian) | TGI (PC-3 prostate)
20 µM: TGI (SN12C renal)
98.9 µM: TGI (SF-268 CNS)
49.2 µM: TGI (SNB-19 CNS)
inactive: GI50 (CCRF-CEM leukemia) 7.36 µM | GI50 (SNB-75 CNS) 17 µM | GI50 (DU-145 prostate) 2.77 µM | GI50 (NCI-H226 lung) 18.6 µM | GI50 (HOP-62 NSCLC) 10.4 µM | GI50 (SK-OV-3 ovarian) 28.5 µM | GI50 (BT-549 breast) 15.4 µM | GI50 (TK-10 renal) 33.2 µM | GI50 (UACC-257 melanoma) 5.71 µM | GI50 (MOLT-4 leukemia) 21.2 µM | GI50 (KM12 colon) 5.06 µM | GI50 (K-562 leukemia) 28.1 µM | GI50 (HOP-92 NSCLC) 24.7 µM | GI50 (NCI/ADR-RES ovarian) 9.25 µM | GI50 (HT29 colon) 5.11 µM | GI50 (OVCAR-5 ovarian) 25.3 µM | GI50 (HCC-2998 colon) 4.39 µM | GI50 (NCI-H522 lung) 9.34 µM | GI50 (COLO 205 colon) 6.23 µM | GI50 (CAKI-1 renal) 12.8 µM | GI50 (HS 578T breast) 15.5 µM | GI50 (IGROV1 ovarian) 10.8 µM | GI50 (SN12C renal) 5.42 µM | GI50 (PC-3 prostate) 5.61 µM | GI50 (HCT-15 colon) 2.35 µM | GI50 (SNB-19 CNS) 4.86 µM | GI50 (SF-268 CNS) 8.63 µM | GI50 (MCF7 breast) 2.01 µM | GI50 (SR leukemia) 0.488 µM
8.59 µM: TGI (MCF7 breast)
92.7 µM: TGI (NCI/ADR-RES ovarian)
92.8 µM: TGI (HS 578T breast)
85.9 µM: TGI (TK-10 renal)
60.2 µM: TGI (BT-549 breast)
29.1 µM: TGI (HCT-15 colon)
